# Results taken from US11673901B2, “Polycyclic compounds as allosteric SHP2 inhibitors” (Revolution Medicines, Inc., priority 2017, dated 2023).
# pIC50: −log10 of the molar value.
# Biological target: SHP2 (Homo sapiens (Human), UniProt Q06124)
# Assay: SHP2 allosteric inhibition assay (DiFMUP prompt fluorescence)
# Assay type: biochemical
# Settings: 0.2 nM SHP2 activated with 0.5 μM Activating Peptide 1 or 2, substrate DiFMUP
# Description: Without wishing to be bound by theory, SHP2 is allosterically activated through binding of bis-tyrosyl-phosphorylated peptides to its Src Homology 2 (SH2) domains. The latter activation step leads to the release of the auto-inhibitory interface of SHP2, which in turn renders the SHP2 protein tyrosine phosphatase (PTP) active and available for substrate recognition and reaction catalysis. The catalytic activity of SHP2 was monitored using the surrogate substrate DiFMUP in a prompt fluorescence assay format.
# The phosphatase reactions were performed at room temperature in 96-well black polystyrene plate, flat bottom, non-binding surface (Corning, Cat #3650) using a final reaction volume of 100 μL and the following assay buffer conditions: 50 mM HEPES, pH 7.2, 100 mM NaCl, 0.5 mM EDTA, 0.05% P-20, 1 mM DTT.
# The inhibition of SHP2 by compounds of the invention (concentrations varying from 0.00005-10 μM) was monitored using an assay in which 0.2 nM of SHP2 was incubated with 0.5 μM of Activating Peptide 1 (sequence: H2N-LN(pY)IDLDLV(dPEG8)LST(pY)ASINFQK-amide) or Activating Peptide 2 (sequence: H2N-LN(pY)AQLWHA(dPEG8)LTI(pY)ATIRRF-amide). After 30-60-minutes incubation at 25° C., the surrogate substrate DiFMUP (Invitrogen, Cat #D6567) was added to the reaction and activity was determined by a kinetic read using a microplate reader (Envision, Perkin-Elmer or Spectramax M5, Molecular Devices). The excitation and emission wavelengths were 340 nm and 450 nm, respectively. Initial rates were determined from a linear fit of the data, and the inhibitor dose response curves were analyzed using normalized IC50 regression curve fitting with control based normalization.
Compound,"pIC50 (Table 2, class symbols)",pIC50 (Table 1)
"C[C@@H]1OCC2(CCN(c3ncc(Sc4ccnc(N5CC(S(C)(=O)=O)C5)c4Cl)c4nccn34)CC2)[C@@H]1N [Compound 12, (3S,4S)-8-(8-{[3-chloro-2-(3-methanesulfonylazetidin-1-yl)pyridin-4-yl]sulfanyl}imidazo[1,2-c]pyrimidin-5-yl)-3-methyl-2-oxa-8-azaspiro[4.5]decan-4-amine]",≥ 7.30,–
Nc1nccc(Sc2cnc(N3CCC(c4ncc[nH]4)CC3)n3ccnc23)c1Cl [Compound 78],< 6.30,–
"CC1(N)CCN(c2ncc(Sc3ccnc(N)c3Cl)c3nncn23)CC1 [Compound 7, 4-{[5-(4-amino-4-methylpiperidin-1-yl)-[1,2,4]triazolo[4,3-c]pyrimidin-8-yl]sulfanyl}-3-chloropyridin-2-amine]",6.30 to 7.30,–
"CC1(N)CCN(c2ncc(Sc3ccnc(N)c3Cl)c3nccn23)CC1 [Compound 2, 4-{[5-(4-amino-4-methylpiperidin-1-yl)imidazo[1,2-c]pyrimidin-8-yl]sulfanyl}-3-chloropyridin-2-amine]",6.30 to 7.30,–
Nc1nccc(Sc2cnc(N3CC[C@H](O)C3)n3ccnc23)c1Cl [Compound 76],< 6.30,–
"COc1cccc(-c2c(C)nc(N3CCC4(CC3)C[C@@H](OC3COC3)C[C@H]4N)n3ccnc23)c1Cl [Compound 64, (2R,4R)-8-[8-(2-chloro-3-methoxy-phenyl)-7-methyl-imidazo[1,2-c]pyrimidin-5-yl]-2-(oxetan-3-yloxy)-8-azaspiro[4.5]decan-4-amine]",≥ 7.30,–
"Cc1nc(N2CCC3(CC2)CC(N2CC(C#N)C2)C[C@H]3N)n2ccnc2c1-c1cccc(Cl)c1Cl (stereo partly drawn) [Compound 62, 1-[(4R)-4-amino-8-[8-(2,3-dichlorophenyl)-7-methylimidazo[1,2-c]pyrimidin-5-yl]-8-azaspiro[4.5]decan-2-yl]azetidine-3-carbonitrile]",≥ 7.30,–
"CC1(N)CN(c2ncc(Sc3ccnc(N)c3Cl)c3nccn23)C1 [Compound 26, 4-{[5-(3-amino-3-methylazetidin-1-yl)imidazo[1,2-c]pyrimidin-8-yl]sulfanyl}-3-chloropyridin-2-amine]",< 6.30,–
"C[C@@H]1OCC2(CCN(c3ncc(Sc4ccnc(N5CC(C#N)C5)c4Cl)c4nccn34)CC2)[C@@H]1N [Compound 13, 1-[4-({5-[(3S,4S)-4-amino-3-methyl-2-oxa-8-azaspiro[4.5]decan-8-yl]imidazo[1,2-c]pyrimidin-8-yl}sulfanyl)-3-chloropyridin-2-yl]azetidine-3-carbonitrile]",≥ 7.30,–
"NCCNc1ncc(Sc2ccnc(N)c2Cl)c2nccn12 [Compound 23, N1-{8-[(2-amino-3-chloropyridin-4-yl)sulfanyl]imidazo[1,2-c]pyrimidin-5-yl}ethane-1,2-diamine]",< 6.30,–
"C[C@@H]1OCC2(CCN(c3nc4[nH]nc(-c5cccc(Cl)c5Cl)c4c4nccn34)CC2)[C@@H]1N [Compound 83, (3S,4S)-8-[12-(2,3-dichlorophenyl)-3,6,8,10,11-pentaazatricyclo[7.3.0.0^2,6]dodeca-1(12),2,4,7,9-pentaen-7-yl]-3-methyl-2-oxa-8-azaspiro[4.5]decan-4-amine]",≥ 7.30,–
Nc1nccc(Sc2cnc(N3CCC[C@@H]3CO)n3ccnc23)c1Cl [Compound 72],< 6.30,–
C[C@@H]1OCC2(CCN(c3ncc(Sc4ccnc(N)c4Cl)c4nccn34)CC2)[C@@H]1N [Compound 1 (Example 1)],–,9.00
"C[C@@H]1OCC2(CCN(c3ncc(-c4ccnc(N)c4)c4nccn34)CC2)[C@@H]1N [Compound 58, (3S,4S)-8-[8-(2-aminopyridin-4-yl)imidazo[1,2-c]pyrimidin-5-yl]-3-methyl-2-oxa-8-azaspiro[4.5]decan-4-amine]",< 6.30,–
"C[C@@H]1OCC2(CCN(c3ncc(Sc4ccnc5[nH]ccc45)c4nccn34)CC2)[C@@H]1N [Compound 15, (3S,4S)-3-methyl-8-(8-{1H-pyrrolo[2,3-b]pyridin-4-ylsulfanyl}imidazo[1,2-c]pyrimidin-5-yl)-2-oxa-8-azaspiro[4.5]decan-4-amine]",≥ 7.30,–
Nc1nccc(Sc2cnc(N3CC[C@@H](O)C3)n3ccnc23)c1Cl [Compound 77],< 6.30,–

# Results, then the compound that gave them:
"pIC50 (Table 2, class symbols)",pIC50 (Table 1),Compound
≥ 7.30,–,"COc1c(C#N)ccc(-c2c(C)nc(N3CCC4(CC3)CO[C@@H](C)[C@H]4N)n3ccnc23)c1Cl [Compound 46, 4-{5-[(3S,4S)-4-amino-3-methyl-2-oxa-8-azaspiro[4.5]decan-8-yl]-7-methylimidazo[1,2-c]pyrimidin-8-yl}-3-chloro-2-methoxybenzonitrile]"
≥ 7.30,–,"Cc1nc(N2CCC3(CC2)CO[C@@H](C)[C@H]3N)n2ccnc2c1-c1cccc2c(Cl)c[nH]c12 [Compound 50, (3S,4S)-8-[8-(3-chloro-1H-indol-7-yl)-7-methylimidazo[1,2-c]pyrimidin-5-yl]-3-methyl-2-oxa-8-azaspiro[4.5]decan-4-amine]"
≥ 7.30,–,"Cc1nc(N2CCC3(CC2)CO[C@@H](C)[C@H]3N)n2ccnc2c1-c1ccc2[nH]cnc2c1 [Compound 33, (3S,4S)-8-[8-(1H-1,3-benzodiazol-6-yl)-7-methylimidazo[1,2-c]pyrimidin-5-yl]-3-methyl-2-oxa-8-azaspiro[4.5]decan-4-amine]"
≥ 7.30,–,"Cc1nc(N2CCC3(CC2)CO[C@@H](C)[C@H]3N)n2ccnc2c1-c1cccc2cn[nH]c12 [Compound 36, (3S,4S)-8-[8-(2H-indazol-7-yl)-7-methylimidazo[1,2-c]pyrimidin-5-yl]-3-methyl-2-oxa-8-azaspiro[4.5]decan-4-amine]"
≥ 7.30,–,"Cc1nc(N2CCC3(CC2)CO[C@@H](C)[C@H]3N)n2ccnc2c1-c1ccc(O)c(Cl)c1Cl [Compound 54, 4-{5-[(3S,4S)-4-amino-3-methyl-2-oxa-8-azaspiro[4.5]decan-8-yl]-7-methylimidazo[1,2-c]pyrimidin-8-yl}-2,3-dichlorophenol]"
≥ 7.30,–,"Cc1nc(N2CCC3(CC2)CO[C@@H](C)[C@H]3N)n2ccnc2c1-c1ccc2ccnn2c1 [Compound 48, (3S,4S)-3-methyl-8-(7-methyl-8-pyrazolo[1,5-a]pyridin-6-yl-imidazo[1,2-c]pyrimidin-5-yl)-2-oxa-8-azaspiro[4.5]decan-4-amine]"
≥ 7.30,–,"COc1nccc(-c2c(C)nc(N3CCC4(CC3)CO[C@@H](C)[C@H]4N)n3ccnc23)c1Cl [Compound 47, (3S,4S)-8-[8-(3-chloro-2-methoxypyridin-4-yl)-7-methylimidazo[1,2-c]pyrimidin-5-yl]-3-methyl-2-oxa-8-azaspiro[4.5]decan-4-amine]"
≥ 7.30,–,"Cc1nc(N2CCC3(CC2)CO[C@@H](C)[C@H]3N)n2ccnc2c1-c1ccc2c(c1Cl)OCC2 [Compound 44, (3S,4S)-8-[8-(7-chloro-2,3-dihydro-1-benzofuran-6-yl)-7-methylimidazo[1,2-c]pyrimidin-5-yl]-3-methyl-2-oxa-8-azaspiro[4.5]decan-4-amine]"
≥ 7.30,–,"Cc1nc(N2CCC3(CC2)CO[C@@H](C)[C@H]3N)n2ccnc2c1Sc1ccnc(N)c1Cl [Compound 29, (3S,4S)-8-{8-[(2-amino-3-chloropyridin-4-yl)sulfanyl]-7-methylimidazo[1,2-c]pyrimidin-5-yl}-3-methyl-2-oxa-8-azaspiro[4.5]decan-4-amine]"
≥ 7.30,–,"Cc1nc(N2CCC3(CC2)CO[C@@H](C)[C@H]3N)n2cnnc2c1Sc1ccnc(N)c1Cl [Compound 61, (3S,4S)-8-{8-[(2-amino-3-chloropyridin-4-yl)sulfanyl]-7-methyl-[1,2,4]triazolo[4,3-c]pyrimidin-5-yl}-3-methyl-2-oxa-8-azaspiro[4.5]decan-4-amine]"
≥ 7.30,–,"Cc1nc(N2CCC3(CC2)CO[C@@H](C)[C@H]3N)n2ccnc2c1-c1cccc2nc[nH]c12 [Compound 32, (3S,4S)-8-[8-(1H-1,3-benzodiazol-4-yl)-7-methylimidazo[1,2-c]pyrimidin-5-yl]-3-methyl-2-oxa-8-azaspiro[4.5]decan-4-amine]"
≥ 7.30,–,"COc1cccc(-c2c(C)nc(N3CCC4(CC3)CO[C@@H](C)[C@H]4N)n3ccnc23)c1Cl [Compound 9, (3S,4S)-8-[8-(2-chloro-3-methoxyphenyl)-7-methylimidazo[1,2-c]pyrimidin-5-yl]-3-methyl-2-oxa-8-azaspiro[4.5]decan-4-amine]"
≥ 7.30,–,"C[C@@H]1OCC2(CCN(c3ncc(-c4cccc(Cl)c4Cl)c4nccn34)CC2)[C@@H]1N [Compound 56, (3S,4S)-8-[8-(2,3-dichlorophenyl)imidazo[1,2-c]pyrimidin-5-yl]-3-methyl-2-oxa-8-azaspiro[4.5]decan-4-amine]"
≥ 7.30,–,"COc1ccc(-c2c(C)nc(N3CCC4(CC3)CO[C@@H](C)[C@H]4N)n3ccnc23)c(Cl)c1C#N [Compound 31, 3-{5-[(3S,4S)-4-amino-3-methyl-2-oxa-8-azaspiro[4.5]decan-8-yl]-7-methylimidazo[1,2-c]pyrimidin-8-yl}-2-chloro-6-methoxybenzonitrile]"
